Results on 1 compound are retold here after US9168243B2, “Pharmaceutical compositions comprising 8-substituted dibenzylbutyrolactone lignans” (priority 2010, dated 2015).

One data set relates to phospho-GSK-3β(ser9). The data set can be described thus: Western blot of GSK-3β / phospho-GSK-3β(ser9). The format is cell-based. As to conditions: LNCaP +/- 1 nM androgen; 100 μM NTG, 0-8 hours. The protocol: Whole cell lysates were prepared by lysing floating and attached cells in Laemmli sample buffer and boiling the samples for 10 minutes. Proteins were separated by SDS-PAGE and transferred on PVDF membrane (Millipore). Western blotting was performed using antibodies against Akt, phospho-Akt (Ser473), GSK-3β, phospho-GSK-3β (Ser9) and phospho-EGF receptor Tyr(1068) (Cell Signalling Technology), Actin (clone AC-40; Sigma-Aldrich), PI3K p85α (clone 4/PI3-Kinase; BD Pharmingen), EGF receptor, Insulin receptor β and IGF-I receptor β (Santa Cruz Biotechnology), and Phospho-tyrosine (clone 4G10; Millipore). HRP-conjugated secondary antibodies were from Southern Biotechnology Associates, Promega, and Amersham Biosciences. The results were visualized using the ECL method (Amersham Biosciences) on x-ray film. The presented Western blot results are representative of at least three independent experiments. […]
(§1) LNCaP cells (+/−1 nM androgen) were treated with 0-100 μM enterolactone (ENL), matairesinol (MAT) or NTG for 1 hour prior to preparation of total cell lysates (FIG. 4A). The relative decrease in pAkt/Akt ratio was quantified from western blot analysis with Akt (60 kDa) and phospho-Akt(ser473) (Mean±SEM; n=4; Student's t-test *p<0.05, **p<0.01). […] The western blot analysis with Akt, phospho-Akt(ser473), GSK-3β and phospho-GSK-3β(ser9) was quantified. […]
For orientation: Immunoblotting shows a protein as a band on a membrane.

The next data set has as its system Akt. Description: Confocal microscopy of Akt localization. It counts as cell-based. Conditions: androgen-deprived LNCaP; 100 μM NTG, 2 hours. The protocol:
After treatments, the cells cultured on coverslips were washed with PBS and fixed with 3% paraformaldehyde for 15 minutes at room temperature. The samples were permeabilized and blocked for one hour in 3% BSA 0.1% Tween in PBS. Akt was labeled with rabbit anti-Akt antibody (Cell signaling) and Alexa 546-conjugated anti-rabbit secondary antibody (Molecular Probes). After washing with PBS, the samples were mounted with DAPI Vectashield (Vector Laboratories) and viewed by Zeiss LSM 510 META laser-scanning confocal microscope (63× oil objective, 543 nm excitation).
as §1, with “**p<0.01). Alternatively, androgen-deprived LNCaP cells were incubated with 100 μM NTG for 2 hours, fixed and labeled with Akt antibody followed by Alexa 546-conjugated secondary antibody. The samples were viewed at LSM 510 confocal microscope (63× oil objective, 543 nm excitation) (FIG. 4B).” for “**p<0.01).”

For data set [1] the following is noted: cited from earlier work.

As for `COc1cc(CC2COC(=O)C2(O)Cc2ccc(O)c(OC)c2)ccc1O` (stereo not shown) [NTG, Nortrachelogenin], the “GSK-3β phosphorylation (pGSK-3β/GSK-3β ratio)” value in the data set with phospho-GSK-3β(ser9) was “downregulates Akt and GSK-3β phosphorylation”. The “cellular localization of Akt” value in the data set on Akt is “increases cytoplasmic localization of Akt”. Also, the “conversion into the mammalian lignans” value in data set [1] (in vivo) was “not known to be converted into the mammalian lignans, ENL or END”. Besides, the absorption and excretion entry in data set [1] (urine) was “absorbed and excreted in urine as such”.
